Experimental data taken from ChEMBL document CHEMBL3808348, “Rational Design, Synthesis, and Biological Evaluation of 7-Azaindole Derivatives as Potent Focused Multi-Targeted Kinase Inhibitors” (J Med Chem, 2016).

Key:
[1] = target: T1, Platelet-derived growth factor receptor alpha (Homo sapiens, UniProt P16234); details: 100 nM
Description: Inhibition of GST-tagged human recombinant PDGFRalpha (550 to 1089 residues) expressed in baculovirus using Fluorescein-Poly GT as substrate at 100 nM

[2] = target: Megakaryocyte-associated tyrosine-protein kinase (Homo sapiens) (UniProt P42679); details: 100 nM
Description: Inhibition of His-tagged full length human recombinant MATK expressed in Escherichia coli using Fluorescein-Poly GT as substrate at 100 nM

[3] = target: Tyrosine-protein kinase Yes (Homo sapiens, UniProt P07947); assay: Inhibition of GST-tagged full length human recombinant YES expressed in baculovirus using Fluorescein-Poly GT as substrate
[4] = target: Serine/threonine-protein kinase B-raf (Homo sapiens) (UniProt P15056); assay: Inhibition of full length GST-tagged human recombinant BRAF expressed in baculovirus using Fluorescein-MAP2K1 as substrate at 100 nM
[5] = target: Testis-specific serine/threonine-protein kinase 2 (Homo sapiens) (UniProt Q96PF2); details: 100 nM
Sequence of Testis-specific serine/threonine-protein kinase 2 (Homo sapiens) (Q96PF2 whole entry): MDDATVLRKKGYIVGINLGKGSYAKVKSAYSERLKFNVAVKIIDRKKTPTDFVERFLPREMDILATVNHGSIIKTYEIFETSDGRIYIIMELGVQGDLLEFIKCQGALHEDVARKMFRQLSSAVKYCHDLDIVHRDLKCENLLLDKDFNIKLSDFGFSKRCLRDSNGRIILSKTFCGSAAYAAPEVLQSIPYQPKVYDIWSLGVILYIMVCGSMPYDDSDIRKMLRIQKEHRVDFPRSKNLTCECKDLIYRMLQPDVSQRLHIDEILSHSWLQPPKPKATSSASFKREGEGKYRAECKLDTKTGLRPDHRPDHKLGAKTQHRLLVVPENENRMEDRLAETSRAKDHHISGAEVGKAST
Description: Inhibition of His-tagged full length human recombinant TSSK2 expressed in baculovirus at 100 nM

[6] = target: RAC-beta serine/threonine-protein kinase (Homo sapiens) (UniProt P31751); details: 100 nM
Description: Inhibition of full length His-tagged human recombinant AKT2 expressed in baculovirus using Fluorescein-Crosstide as substrate at 100 nM

[7] = target: T2, Tyrosine-protein kinase FRK (Homo sapiens, UniProt P42685); details: 100 nM
T2 sequence (P42685 whole entry): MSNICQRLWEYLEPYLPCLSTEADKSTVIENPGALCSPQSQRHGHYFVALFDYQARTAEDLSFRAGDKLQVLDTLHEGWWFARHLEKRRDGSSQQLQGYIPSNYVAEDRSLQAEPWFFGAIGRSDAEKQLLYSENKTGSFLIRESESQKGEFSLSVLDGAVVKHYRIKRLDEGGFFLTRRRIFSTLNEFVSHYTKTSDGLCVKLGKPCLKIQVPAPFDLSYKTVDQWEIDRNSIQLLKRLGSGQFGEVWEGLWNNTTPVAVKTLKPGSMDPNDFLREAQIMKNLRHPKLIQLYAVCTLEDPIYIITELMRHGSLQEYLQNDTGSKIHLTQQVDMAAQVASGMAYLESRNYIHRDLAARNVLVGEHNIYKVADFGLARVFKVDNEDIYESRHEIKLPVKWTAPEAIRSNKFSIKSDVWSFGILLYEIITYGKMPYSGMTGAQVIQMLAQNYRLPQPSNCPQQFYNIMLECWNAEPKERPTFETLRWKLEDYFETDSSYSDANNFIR
Description: Inhibition of GST-tagged full length human recombinant FRK expressed in baculovirus using Fluorescein-Poly GT as substrate at 100 nM

[8] = target: Vascular endothelial growth factor receptor 1 (Homo sapiens) (UniProt P17948); details: 100 nM
Description: Inhibition of GST-tagged human recombinant VEGFR1 (781 to 1338 residues) expressed in baculovirus using Fluorescein-Poly GT as substrate at 100 nM

[9] = Antiangiogenic activity in HRMEC after 72 hrs by MTT assay; assay type: functional, Homo sapiens
[10] = target: Mitogen-activated protein kinase 14 (Homo sapiens) (UniProt Q16539); details: 100 nM
Description: Inhibition of GST-tagged full length human recombinant p38alpha expressed in Escherichia coli using Fluorescein-Poly GT as substrate at 100 nM

[11] = target: Tyrosine-protein kinase ITK/TSK (Homo sapiens) (UniProt Q08881); details: 100 nM
Description: Inhibition of GST-tagged full length human recombinant ITK expressed in baculovirus using Fluorescein-Poly GT as substrate at 100 nM

[12] = target: NUAK family SNF1-like kinase 1 (Homo sapiens) (UniProt O60285); details: 100 nM
Description: Inhibition of NUAK1 (unknown origin) at 100 nM

[13] = target: Protein kinase C theta type (Homo sapiens) (UniProt Q04759); details: 100 nM
Description: Inhibition of full length His-tagged human recombinant PKCtheta expressed in baculovirus using Fluorescein-PKC as substrate at 100 nM

[14] = target: Aurora kinase B (Homo sapiens) (UniProt Q96GD4); details: 100 nM
Sequence of Aurora kinase B (Homo sapiens) (Q96GD4 whole entry): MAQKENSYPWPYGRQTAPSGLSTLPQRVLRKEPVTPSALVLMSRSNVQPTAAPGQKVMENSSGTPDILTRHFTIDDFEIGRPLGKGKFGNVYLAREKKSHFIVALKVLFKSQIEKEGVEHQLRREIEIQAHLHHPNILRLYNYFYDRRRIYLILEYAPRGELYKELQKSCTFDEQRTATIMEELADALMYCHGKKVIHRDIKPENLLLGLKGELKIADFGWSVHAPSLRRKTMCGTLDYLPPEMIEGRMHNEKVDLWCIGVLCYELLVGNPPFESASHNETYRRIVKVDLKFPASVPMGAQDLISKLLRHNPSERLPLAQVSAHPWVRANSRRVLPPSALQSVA
Description: Inhibition of full length His-tagged human recombinant Aurora B expressed in baculovirus using Fluorescein-CREBtide as substrate at 100 nM

[15] = target: Protein kinase C epsilon type (Homo sapiens) (UniProt Q02156); details: 100 nM
Description: Inhibition of full length human recombinant PKCepsilon expressed in baculovirus using Fluorescein-PKC as substrate at 100 nM

HUVEC = assay: Antiangiogenic activity in HUVEC after 72 hrs by MTT assay; assay type: functional, cell-based; details: Homo sapiens
[16] = Tmax in Swiss mouse plasma at 20 mg/kg, po by LC/MS/MS analysis; assay type: ADME, organism-based
[17] = target: Protein kinase C alpha type (Homo sapiens) (UniProt P17252); details: 100 nM
Description: Inhibition of full length human recombinant PKCalpha expressed in baculovirus using Fluorescein-PKC as substrate at 100 nM

[18] = target: Tyrosine-protein kinase Fyn (Homo sapiens, UniProt P06241); assay: Inhibition of His-tagged full length human recombinant FYN expressed in baculovirus using Fluorescein-Poly GT as substrate
Sequence of Tyrosine-protein kinase Fyn (P06241 whole entry): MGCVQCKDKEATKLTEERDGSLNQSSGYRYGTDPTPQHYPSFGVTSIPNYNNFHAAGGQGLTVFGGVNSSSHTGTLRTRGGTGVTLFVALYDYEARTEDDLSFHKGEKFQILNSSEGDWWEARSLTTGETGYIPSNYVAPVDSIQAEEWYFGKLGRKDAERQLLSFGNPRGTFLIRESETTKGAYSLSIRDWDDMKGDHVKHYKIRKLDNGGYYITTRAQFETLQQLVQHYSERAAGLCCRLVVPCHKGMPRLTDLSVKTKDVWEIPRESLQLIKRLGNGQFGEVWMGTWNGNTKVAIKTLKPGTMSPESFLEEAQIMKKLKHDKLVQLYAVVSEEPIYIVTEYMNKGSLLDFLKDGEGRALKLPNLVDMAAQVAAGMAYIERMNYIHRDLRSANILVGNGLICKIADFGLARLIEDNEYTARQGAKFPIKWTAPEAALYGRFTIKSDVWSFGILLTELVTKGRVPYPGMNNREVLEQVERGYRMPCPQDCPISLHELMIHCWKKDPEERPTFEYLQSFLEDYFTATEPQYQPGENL

[19] = target: Vascular endothelial growth factor receptor 2 (Homo sapiens) (UniProt P35968); assay: Inhibition of full length His-tagged human recombinant VEGFR2 expressed in baculovirus using Fluorescein-Poly GT as substrate at 100 nM
[20] = target: Tyrosine-protein kinase JAK2 (Homo sapiens) (UniProt O60674); details: 100 nM
Description: Inhibition of GST-tagged human recombinant JAK2 (809 to 1153 +9 residues) expressed in baculovirus using GFP-ST AT1 as substrate at 100 nM

[21] = AUC(0 to infinity) in Swiss mouse plasma at 2 mg/kg, iv by LC/MS/MS analysis; assay type: ADME, organism-based; parameters: dose 2 mg/kg, route intravenous, time infinity
[22] = target: Mast/stem cell growth factor receptor Kit (Homo sapiens) (UniProt P10721); details: 100 nM
Description: Inhibition of His-tagged human recombinant cKIT expressed in baculovirus using Fluorescein-Poly GT as substrate at 100 nM

Homo sapiens = species on record: Homo sapiens; details: 100 nM
Description: Inhibition of CK1 (unknown origin) at 100 nM

[23] = target: Cyclin-dependent kinase 5/CDK5 activator 1 (Homo sapiens) (UniProt Q00535+Q15078); details: 100 nM
Sequence of Cyclin-dependent kinase 5/CDK5 activator 1 (Homo sapiens) (Q00535 whole entry): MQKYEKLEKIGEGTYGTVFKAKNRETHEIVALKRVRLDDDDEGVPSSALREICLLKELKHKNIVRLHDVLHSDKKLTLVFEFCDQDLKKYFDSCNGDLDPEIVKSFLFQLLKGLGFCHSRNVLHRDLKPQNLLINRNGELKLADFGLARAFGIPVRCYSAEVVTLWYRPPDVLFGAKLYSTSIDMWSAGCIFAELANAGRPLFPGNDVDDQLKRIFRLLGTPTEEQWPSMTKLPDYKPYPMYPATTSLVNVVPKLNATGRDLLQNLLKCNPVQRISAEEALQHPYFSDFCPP
Sequence of Cyclin-dependent kinase 5/CDK5 activator 1 (Homo sapiens) (Q15078 99-307 partner limits assumed): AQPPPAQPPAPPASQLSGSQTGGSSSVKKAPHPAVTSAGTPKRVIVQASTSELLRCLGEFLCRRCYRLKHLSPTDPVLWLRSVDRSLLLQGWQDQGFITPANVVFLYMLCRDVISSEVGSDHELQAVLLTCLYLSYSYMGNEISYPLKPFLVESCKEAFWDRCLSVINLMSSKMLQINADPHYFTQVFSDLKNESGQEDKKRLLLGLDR
Description: Inhibition of CDK5/p25 (unknown origin) at 100 nM

[24] = target: Tyrosine-protein kinase ABL1 (Homo sapiens, UniProt P00519, G250E); assay: Inhibition of His-tagged full length human recombinant ABL G250E mutant expressed in baculovirus using Fluorescein-Poly GT as substrate
[25] = target: Ephrin type-A receptor 2 (Homo sapiens) (UniProt P29317); details: 100 nM
Description: Inhibition of GST-tagged human recombinant EPHA2 (560 to 976 residues) expressed in baculovirus using Fluorescein-Poly GT as substrate at 100 nM

[26] = target: T2, Tyrosine-protein kinase FRK; assay: Inhibition of GST-tagged full length human recombinant FRK expressed in baculovirus using Fluorescein-Poly GT as substrate
[27] = tested on: Epidermal growth factor receptor (Homo sapiens), P00533 [T790M]; details: 100 nM
[28] = target: CDK2/Cyclin A2 (Homo sapiens) (UniProt P24941+P20248); details: 100 nM
Description: Inhibition of CDK2/cyclinA (unknown origin) at 100 nM

[29] = AUC(0 to infinity) in Swiss mouse plasma at 20 mg/kg, po by LC/MS/MS analysis; assay type: ADME, organism-based; parameters: dose 20 mg/kg, time infinity, route oral
[30] = Antiproliferative activity against human PC3 cells after 72 hrs by MTT assay; assay type: functional, cell-based; details: PC-3, 72 h
[31] = target: Dual specificity mitogen-activated protein kinase kinase 1 (Homo sapiens) (UniProt Q02750); details: 100 nM
Description: Inhibition of full length His-tagged human recombinant MEK1 expressed in baculovirus expression system at 100 nM

[32] = target: Serine/threonine-protein kinase Nek2 (Homo sapiens) (UniProt P51955); details: 100 nM
Sequence of Serine/threonine-protein kinase Nek2 (Homo sapiens) (P51955 whole entry): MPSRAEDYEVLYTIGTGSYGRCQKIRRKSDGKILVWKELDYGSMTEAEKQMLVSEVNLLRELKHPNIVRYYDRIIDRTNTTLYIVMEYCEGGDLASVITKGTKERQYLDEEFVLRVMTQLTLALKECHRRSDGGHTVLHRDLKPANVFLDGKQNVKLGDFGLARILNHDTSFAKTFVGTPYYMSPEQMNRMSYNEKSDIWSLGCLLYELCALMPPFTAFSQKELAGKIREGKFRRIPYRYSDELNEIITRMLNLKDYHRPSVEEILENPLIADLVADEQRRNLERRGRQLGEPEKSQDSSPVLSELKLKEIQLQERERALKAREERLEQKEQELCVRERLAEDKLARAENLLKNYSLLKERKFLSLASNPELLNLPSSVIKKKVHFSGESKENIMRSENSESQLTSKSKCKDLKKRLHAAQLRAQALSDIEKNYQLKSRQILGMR
Description: Inhibition of HIS-tagged full length human recombinant NEK2 expressed in baculovirus using Fluorescein-PKC as substrate at 100 nM

[33] = Cmax in Swiss mouse plasma at 20 mg/kg, po by LC/MS/MS analysis; assay type: ADME, organism-based; parameters: dose 20 mg/kg, route oral
[34] = target: Epidermal growth factor receptor (Homo sapiens, UniProt P00533); assay: Inhibition of GST-tagged human recombinant EGFR (668 to1210 residues) expressed in baculovirus using Fluorescein-Poly GT as substrate
A549 = assay: Antiproliferative activity against human A549 cells after 72 hrs by MTT assay; assay type: functional, cell-based; details: A549, 72 h
[35] = target: Phosphorylase b kinase gamma catalytic chain, liver/testis isoform (Homo sapiens) (UniProt P15735); details: 100 nM
Description: Inhibition of human full length recombinant N-terminal GST-tagged PHKG2 expressed in baculovirus at 100 nM

[36] = target: Tyrosine-protein kinase ABL1 (Homo sapiens, UniProt P00519, Y253F); assay: Inhibition of His-tagged full length human recombinant ABL Y253F mutant expressed in baculovirus using Fluorescein-Poly GT as substrate
[37] = target: T1, Platelet-derived growth factor receptor alpha; assay: Inhibition of full length GST-tagged human recombinant PDGFRalpha expressed in baculovirus using Fluorescein-Poly GT as substrate
[38] = target: Protein kinase C delta type (Homo sapiens) (UniProt Q05655); details: 100 nM
Description: Inhibition of full length human recombinant PKCdelta expressed in baculovirus using Fluorescein-PKC as substrate at 100 nM

[39] = target: Proto-oncogene tyrosine-protein kinase receptor Ret (Homo sapiens) (UniProt P07949); details: 100 nM
Description: Inhibition of GST-tagged human recombinant RET (658 to 1114 residues) expressed in baculovirus using Fluorescein-Poly GT as substrate at 100 nM

[40] = target: Receptor-type tyrosine-protein kinase FLT3 (Homo sapiens) (UniProt P36888); details: 100 nM
Description: Inhibition of His-tagged human recombinant FLT3 (564 to 958 residues) expressed in baculovirus using Fluorescein-Poly GT as substrate at 100 nM

[41] = target: Serine/threonine-protein kinase Chk2 (Homo sapiens) (UniProt O96017); details: 100 nM
Description: Inhibition of His-tagged human recombinant CHK2 expressed in baculovirus using Fluorescein-CREBtide as substrate at 100 nM

T1 sequence (P16234 whole entry): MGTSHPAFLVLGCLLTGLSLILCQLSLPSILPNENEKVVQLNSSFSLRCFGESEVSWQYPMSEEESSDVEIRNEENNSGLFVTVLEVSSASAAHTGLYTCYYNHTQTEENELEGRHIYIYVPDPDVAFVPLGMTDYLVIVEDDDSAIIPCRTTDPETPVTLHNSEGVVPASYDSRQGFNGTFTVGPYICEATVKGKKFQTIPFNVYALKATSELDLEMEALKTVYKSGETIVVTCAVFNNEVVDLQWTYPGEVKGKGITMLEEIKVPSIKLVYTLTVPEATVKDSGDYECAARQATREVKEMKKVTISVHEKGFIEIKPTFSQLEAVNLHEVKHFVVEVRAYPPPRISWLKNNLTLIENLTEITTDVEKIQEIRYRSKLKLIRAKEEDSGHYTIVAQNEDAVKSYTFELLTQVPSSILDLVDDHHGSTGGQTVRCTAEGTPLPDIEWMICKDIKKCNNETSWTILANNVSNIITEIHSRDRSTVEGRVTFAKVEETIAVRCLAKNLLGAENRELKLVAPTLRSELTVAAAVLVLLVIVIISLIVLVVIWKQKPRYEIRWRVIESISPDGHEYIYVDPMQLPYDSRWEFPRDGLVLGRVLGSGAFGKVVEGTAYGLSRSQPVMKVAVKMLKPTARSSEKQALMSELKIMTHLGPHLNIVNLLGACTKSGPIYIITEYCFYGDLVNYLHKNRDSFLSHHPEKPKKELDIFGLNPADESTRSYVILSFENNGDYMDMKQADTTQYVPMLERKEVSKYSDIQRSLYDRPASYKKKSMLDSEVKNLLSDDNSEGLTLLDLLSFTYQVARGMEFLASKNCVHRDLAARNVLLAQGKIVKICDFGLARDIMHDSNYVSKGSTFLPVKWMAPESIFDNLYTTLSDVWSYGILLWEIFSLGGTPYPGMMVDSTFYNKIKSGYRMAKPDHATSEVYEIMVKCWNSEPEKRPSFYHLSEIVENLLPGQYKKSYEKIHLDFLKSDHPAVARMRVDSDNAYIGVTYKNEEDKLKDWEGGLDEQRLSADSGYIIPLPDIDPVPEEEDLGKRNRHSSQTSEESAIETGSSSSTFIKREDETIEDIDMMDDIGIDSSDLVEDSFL
Sequence of Megakaryocyte-associated tyrosine-protein kinase (Homo sapiens) (P42679 whole entry): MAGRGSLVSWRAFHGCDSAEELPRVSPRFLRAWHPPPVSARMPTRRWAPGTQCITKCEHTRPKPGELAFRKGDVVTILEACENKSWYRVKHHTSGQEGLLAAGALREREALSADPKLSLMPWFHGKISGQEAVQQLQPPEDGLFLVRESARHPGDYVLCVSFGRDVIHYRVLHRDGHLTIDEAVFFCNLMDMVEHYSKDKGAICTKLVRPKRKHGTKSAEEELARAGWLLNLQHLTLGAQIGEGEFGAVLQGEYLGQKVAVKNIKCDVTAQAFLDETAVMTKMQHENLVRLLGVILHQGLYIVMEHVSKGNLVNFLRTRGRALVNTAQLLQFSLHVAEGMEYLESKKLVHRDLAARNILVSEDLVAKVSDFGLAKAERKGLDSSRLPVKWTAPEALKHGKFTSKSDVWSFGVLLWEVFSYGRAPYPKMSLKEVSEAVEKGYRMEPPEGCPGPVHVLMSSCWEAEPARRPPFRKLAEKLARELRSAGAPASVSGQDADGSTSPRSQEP

**Q.** What does the source list for `COC(=O)c1cc2cc(NCc3cc(NC(=O)c4cc(-n5cnc(C)c5)cc(C(F)(F)F)c4)ccc3C)cnc2[nH]1`?
**A.** inhibition [1]: < 40%; inhibition [2]: < 40%; IC50 [3]: 44 nM; inhibition [4]: 54%; inhibition [5]: < 40%; inhibition [6]: < 40%; inhibition [7]: < 40%; inhibition [8]: < 40%; EC50 [9]: 62 nM; inhibition [10]: < 40%; inhibition [11]: < 40%; inhibition [12]: < 40%; inhibition [13]: < 40%; inhibition [14]: < 40%; inhibition [15]: < 40%; EC50 (HUVEC): 34 nM; Tmax [16]: 30 min; inhibition [17]: < 40%; IC50 [18]: 131 nM; inhibition [19]: 46%; inhibition [20]: < 40%; AUC(0-inf) [21]: 558 ng·h/mL; inhibition [22]: < 40%; inhibition (Homo sapiens): < 40%; inhibition [23]: < 40%; IC50 [24]: 46 nM; inhibition [25]: < 40%; IC50 [26]: 62 nM; inhibition [27]: < 40%; inhibition [28]: < 40%; AUC(0-inf) [29]: 3030 ng·h/mL; EC50 [30]: 152 nM; inhibition [31]: < 40%; inhibition [32]: < 40%; Cmax [33]: 610 ng/mL; IC50 [34]: 15 nM; EC50 (A549): 64 nM; inhibition [35]: < 40%; IC50 [36]: 51 nM; IC50 [37]: 50 nM; inhibition [38]: < 40%; inhibition [39]: < 40%; inhibition [40]: < 40%; inhibition [41]: < 40%
